Tested on: MV-4-11 cells
Experiment: Gene expression microarray analysis (Affymetrix PrimeView) and GSEA
Format: cell-based, human
Set-up: RFU PODN (11730768_x_at) / Fold change /veh PODN (11730768_x_at) / RFU LINC00158 (11744669_a_at) / Fold change /veh LINC00158 (11744669_a_at) / RFU DUSP10 (11751237_a_at) / Fold change /veh DUSP10 (11751237_a_at) / RFU ID3 (11757404_x_at) / Fold change /veh ID3 (11757404_x_at) / RFU PLEKHG5 (11737974_s_at) / Fold change /veh PLEKHG5 (11737974_s_at) / RFU LRRC4B (11730491_at) / Fold change /veh LRRC4B (11730491_at) / RFU GIMAP4 (11747438_a_at) / Fold change /veh GIMAP4 (11747438_a_at) / RFU KRT8 (11758183_x_at) / Fold change /veh KRT8 (11758183_x_at) / RFU CNN1 (11734310_a_at) / Fold change /veh CNN1 (11734310_a_at) / RFU VPS37D (11726825_at) / Fold change /veh VPS37D (11726825_at) / RFU C10orf10 (11716522_x_at) / Fold change /veh C10orf10 (11716522_x_at) / RFU KIR2DL2 /// KIR2DL4 /// KIR2DL5A /// KIR2DL5B /// KIR2DS1 /// KIR2DS2 /// KIR2DS3 /// KIR2DS4 /// KIR3DL3 /// KIR3DL3 /// KIR3DS1 (11738374_at) / Fold change /veh KIR2DL2 /// KIR2DL4 /// KIR2DL5A /// KIR2DL5B /// KIR2DS1 /// KIR2DS2 /// KIR2DS3 /// KIR2DS4 /// KIR3DL3 /// KIR3DL3 /// KIR3DS1 (11738374_at) / RFU C1QL1 (11718748_at) / Fold change /veh C1QL1 (11718748_at) / RFU TMPRSS4 (11747572_a_at) / Fold change /veh TMPRSS4 (11747572_a_at) / RFU HAMP (11756126_x_at) / Fold change /veh HAMP (11756126_x_at) / RFU RNFT2 (11725882_a_at) / Fold change /veh RNFT2 (11725882_a_at) / RFU NR4A2 (11747474_a_at) / Fold change /veh NR4A2 (11747474_a_at) / RFU ABCC12 (11746883_a_at) / Fold change /veh ABCC12 (11746883_a_at) / RFU TMEM136 (11760407_x_at) / Fold change /veh TMEM136 (11760407_x_at) / RFU CLDN22 /// WWC2 (11732394_at) / Fold change /veh CLDN22 /// WWC2 (11732394_at) / RFU HLA-DPB1 (11760878_x_at) / Fold change /veh HLA-DPB1 (11760878_x_at) / RFU SPINT1 (11716480_a_at) / Fold change /veh SPINT1 (11716480_a_at) / RFU GAP43 (11754022_s_at) / Fold change /veh GAP43 (11754022_s_at) / RFU A4GNT (11735810_at) / Fold change /veh A4GNT (11735810_at) / RFU PRB3 (11715151_x_at) / Fold change /veh PRB3 (11715151_x_at) / RFU TUBB4B (11761932_at) / Fold change /veh TUBB4B (11761932_at) / RFU CAPN14 (11732068_a_at) / Fold change /veh CAPN14 (11732068_a_at) / RFU TMCC2 (11721928_a_at) / Fold change /veh TMCC2 (11721928_a_at) / RFU IRGQ (11745062_a_at) / Fold change /veh IRGQ (11745062_a_at) / RFU FAM174B (11720279_a_at) / Fold change /veh FAM174B (11720279_a_at) / RFU TMPRSS4 (11748680_a_at) / Fold change /veh TMPRSS4 (11748680_a_at) / RFU FAM212B (11763350_a_at) / Fold change /veh FAM212B (11763350_a_at) / RFU PLEKHG5 (11743358_a_at) / Fold change /veh PLEKHG5 (11743358_a_at) / RFU ZSCAN30 (11745921_a_at) / Fold change /veh ZSCAN30 (11745921_a_at) / RFU CMKLR1 (11741424_a_at) / Fold change /veh CMKLR1 (11741424_a_at) / RFU LOC101060620 /// MAPK8IP1 (11723275_at) / Fold change /veh LOC101060620 /// MAPK8IP1 (11723275_at) / RFU SPTSSB (11747773_x_at) / Fold change /veh SPTSSB (11747773_x_at) / RFU PRSS12 (11739890_at) / Fold change /veh PRSS12 (11739890_at) / RFU BIN1 (11741810_x_at) / Fold change /veh BIN1 (11741810_x_at) / RFU WNT11 (11732464_a_at) / Fold change /veh WNT11 (11732464_a_at) / RFU C10orf10 (11716521_a_at) / Fold change /veh C10orf10 (11716521_a_at) / RFU C5orf56 (11738089_at) / Fold change /veh C5orf56 (11738089_at) / RFU CYB561 (11721691_x_at) / Fold change /veh CYB561 (11721691_x_at) / RFU ANKRD19P (11752326_a_at) / Fold change /veh ANKRD19P (11752326_a_at) / RFU OR2T12 /// OR2T33 /// OR2T8 (11738714_s_at) / Fold change /veh OR2T12 /// OR2T33 /// OR2T8 (11738714_s_at) / RFU VCAN (11748164_a_at) / Fold change /veh VCAN (11748164_a_at) / RFU JSRP1 (11732532_at) / Fold change /veh JSRP1 (11732532_at) / RFU KRTAP10-11 (11738290_x_at) / Fold change /veh KRTAP10-11 (11738290_x_at) / RFU MYO3A (11730013_a_at) / Fold change /veh MYO3A (11730013_a_at) / RFU EBF3 (11725865_a_at) / Fold change /veh EBF3 (11725865_a_at) / RFU CAMK2N1 (11719241_x_at) / Fold change /veh CAMK2N1 (11719241_x_at) / RFU C5orf56 (11738088_a_at) / Fold change /veh C5orf56 (11738088_a_at) / RFU OLFML3 (11715873_a_at) / Fold change /veh OLFML3 (11715873_a_at) / RFU LOC100653217 /// NTM (11731650_a_at) / Fold change /veh LOC100653217 /// NTM (11731650_a_at) / RFU MAPK11 (11762145_a_at) / Fold change /veh MAPK11 (11762145_a_at) / RFU FIZ1 (11724087_x_at) / Fold change /veh FIZ1 (11724087_x_at) / RFU OASL (11726364_x_at) / Fold change /veh OASL (11726364_x_at) / RFU SOX15 (11748057_x_at) / Fold change /veh SOX15 (11748057_x_at) / RFU CD79A (11719716_a_at) / Fold change /veh CD79A (11719716_a_at) / RFU HIST1H1D (11736915_at) / Fold change /veh HIST1H1D (11736915_at) / RFU CASKIN2 (11723855_a_at) / Fold change /veh CASKIN2 (11723855_a_at) / RFU LOC730098 (11760151_x_at) / Fold change /veh LOC730098 (11760151_x_at) / RFU OR4N2 (11742367_at) / Fold change /veh OR4N2 (11742367_at) / RFU PRRT2 (11749266_a_at) / Fold change /veh PRRT2 (11749266_a_at) / RFU SNX32 (11753110_a_at) / Fold change /veh SNX32 (11753110_a_at) / RFU CDHR5 (11726645_a_at) / Fold change /veh CDHR5 (11726645_a_at) / RFU RCAN1 (11760418_a_at) / Fold change /veh RCAN1 (11760418_a_at) / RFU FAM167A (11723789_a_at) / Fold change /veh FAM167A (11723789_a_at) / RFU FAM26E (11764081_at) / Fold change /veh FAM26E (11764081_at) / RFU ISYNA1 (11749810_s_at) / Fold change /veh ISYNA1 (11749810_s_at) / RFU ACY1 (11761880_at) / Fold change /veh ACY1 (11761880_at) / RFU 11764098_at / Fold change /veh 11764098_at / RFU SAMD14 (11745864_x_at) / Fold change /veh SAMD14 (11745864_x_at) / RFU NPB (11741838_a_at) / Fold change /veh NPB (11741838_a_at) / RFU TMPRSS6 (11731388_a_at) / Fold change /veh TMPRSS6 (11731388_a_at) / RFU KRTAP10-2 (11738614_at) / Fold change /veh KRTAP10-2 (11738614_at) / RFU ARHGAP8 /// PRR5-ARHGAP8 (11727945_x_at) / Fold change /veh ARHGAP8 /// PRR5-ARHGAP8 (11727945_x_at) / RFU KRTAP5-7 /// NADSYN1 (11734609_at) / Fold change /veh KRTAP5-7 /// NADSYN1 (11734609_at) / RFU RASL12 (11751679_a_at) / Fold change /veh RASL12 (11751679_a_at) / RFU CDKN2B (11736163_a_at) / Fold change /veh CDKN2B (11736163_a_at) / RFU PRF1 (11729649_at) / Fold change /veh PRF1 (11729649_at) / RFU, ZNF638 /// ZNF638-IT1 / Fold change vs veh, ZNF638 /// ZNF638-IT1 / RFU, PANK3 / Fold change vs veh, PANK3 / RFU, SH3YL1 / Fold change vs veh, SH3YL1 / RFU, ZEB2 / Fold change vs veh, ZEB2 / RFU, NRIP1 / Fold change vs veh, NRIP1 / RFU, PTTG1IP / Fold change vs veh, PTTG1IP / RFU, CAPN2 / Fold change vs veh, CAPN2 / RFU, MED14 / Fold change vs veh, MED14 / RFU, SNORA58 / Fold change vs veh, SNORA58 / RFU, C1orf63 / Fold change vs veh, C1orf63 / RFU, LRRFIP1 / Fold change vs veh, LRRFIP1 / RFU, NDUFAF7 / Fold change vs veh, NDUFAF7 / RFU, SLC12A2 / Fold change vs veh, SLC12A2 / RFU, IBTK / Fold change vs veh, IBTK / RFU, ESF1 / Fold change vs veh, ESF1 / Fold change vs veh, TMEM50B / RFU, TAOK1 / Fold change vs veh, TAOK1 / RFU, ACBD3 / Fold change vs veh, ACBD3 / RFU, TMA16 / Fold change vs veh, TMA16 / RFU, RWDD3 / Fold change vs veh, RWDD3 / RFU, BCAT1 / Fold change vs veh, BCAT1 / RFU, EDEM3 / Fold change vs veh, EDEM3 / RFU, TMEM33 / Fold change vs veh, TMEM33 / RFU, WDR75 / Fold change vs veh, WDR75 / RFU, AHCTF1 / Fold change vs veh, AHCTF1 / RFU, TFRC / Fold change vs veh, TFRC / RFU, ZDHHC17 / Fold change vs veh, ZDHHC17 / RFU, NOM1 / Fold change vs veh, NOM1 / RFU, ARL8B / Fold change vs veh, ARL8B / RFU, ZBTB11 / Fold change vs veh, ZBTB11 / RFU, TAMM41 / Fold change vs veh, TAMM41 / RFU, KIAA1704 /// LOC100996395 / Fold change vs veh, KIAA1704 /// LOC100996395 / RFU, ING1 / Fold change vs veh, ING1 / RFU, TRMT61B / Fold change vs veh, TRMT61B / RFU, FUBP3 / Fold change vs veh, FUBP3 / RFU, TP53 / Fold change vs veh, TP53 / RFU, TNKS2 / Fold change vs veh, TNKS2 / RFU, ZFP14 / Fold change vs veh, ZFP14 / RFU, ACTR2 / Fold change vs veh, ACTR2 / RFU, PPP3R1 / Fold change vs veh, PPP3R1 / RFU, PIK3R1 / Fold change vs veh, PIK3R1 / RFU, HNRNPA1 / Fold change vs veh, HNRNPA1 / RFU, RNF170 / Fold change vs veh, RNF170 / RFU, ZNF28 / Fold change vs veh, ZNF28 / RFU, RNGTT / Fold change vs veh, RNGTT / RFU, OGT / Fold change vs veh, OGT / RFU, BRD1 / Fold change vs veh, BRD1 / RFU, MARS / Fold change vs veh, MARS / RFU, ZNF655 / Fold change vs veh, ZNF655 / RFU, FAHD1 / Fold change vs veh, FAHD1 / RFU, BDP1 / Fold change vs veh, BDP1 / RFU, LRRCC1 / Fold change vs veh, LRRCC1 / RFU, ARID1A / Fold change vs veh, ARID1A / RFU, ZNF146 / Fold change vs veh, ZNF146 / RFU, ZNF330 / Fold change vs veh, ZNF330 / RFU, GPN3 / Fold change vs veh, GPN3 / RFU, C9orf123 / Fold change vs veh, C9orf123 / RFU, N4BP2L2 / Fold change vs veh, N4BP2L2 / RFU, ARFIP1 / Fold change vs veh, ARFIP1 / RFU, FAM179B / Fold change vs veh, FAM179B / RFU, BCL10 / Fold change vs veh, BCL10 / RFU, UHRF1BP1L / Fold change vs veh, UHRF1BP1L / RFU, BET1 / Fold change vs veh, BET1 / RFU, CNOT2 / Fold change vs veh, CNOT2 / RFU, ZNF268 / Fold change vs veh, ZNF268 / Fold change vs veh, ZNF507 / RFU, DGCR2 / Fold change vs veh, DGCR2 / RFU, WDSUB1 / Fold change vs veh, WDSUB1 / Fold change vs veh, HSP90B1 /// MIR3652 / RFU, ADSS / Fold change vs veh, ADSS / RFU, GK / Fold change vs veh, GK / RFU, ZNF148 / Fold change vs veh, ZNF148 / RFU, TAF9 / Fold change vs veh, TAF9 / RFU, SLC1A5 / Fold change vs veh, SLC1A5 / RFU, SLMO2 / Fold change vs veh, SLMO2 / RFU, ABCC4 / Fold change vs veh, ABCC4 / RFU, LOC101060439 /// RAP1B / Fold change vs veh, LOC101060439 /// RAP1B / RFU, RFX7 / Fold change vs veh, RFX7 / RFU, GTPBP10 / Fold change vs veh, GTPBP10 / RFU, CNEP1R1 / Fold change vs veh, CNEP1R1 / RFU, BIVM-ERCC5 /// ERCC5 / Fold change vs veh, BIVM-ERCC5 /// ERCC5 / RFU, ILF3 / Fold change vs veh, ILF3 / RFU 11762660_at / Fold change /veh 11762660_at / RFU VCAN (11757783_s_at) / Fold change /veh VCAN (11757783_s_at) / RFU DDX43 (11728927_at) / Fold change /veh DDX43 (11728927_at) / RFU KRT8 (11758188_x_at) / Fold change /veh KRT8 (11758188_x_at) / RFU NKD1 (11759106_at) / Fold change /veh NKD1 (11759106_at) / RFU SRD5A1 (11742802_a_at) / Fold change /veh SRD5A1 (11742802_a_at) / RFU TPSAB1 /// TPSB2 (11721975_s_at) / Fold change /veh TPSAB1 /// TPSB2 (11721975_s_at) / RFU GSTM3 (11746129_a_at) / Fold change /veh GSTM3 (11746129_a_at) / RFU IL23R (11737362_x_at) / Fold change /veh IL23R (11737362_x_at) / RFU TMEM51 (11727254_a_at) / Fold change /veh TMEM51 (11727254_a_at) / RFU PIWIL2 (11732686_x_at) / Fold change /veh PIWIL2 (11732686_x_at) / RFU ORM1 (11744905_x_at) / Fold change /veh ORM1 (11744905_x_at) / RFU CCDC152 (11743942_at) / Fold change /veh CCDC152 (11743942_at) / RFU ECM1 (11717891_a_at) / Fold change /veh ECM1 (11717891_a_at) / RFU IL23R (11748794_a_at) / Fold change /veh IL23R (11748794_a_at) / RFU TNFAIP8L3 (11732012_x_at) / Fold change /veh TNFAIP8L3 (11732012_x_at) / RFU MBOAT4 (11741988_at) / Fold change /veh MBOAT4 (11741988_at) / RFU 11764193_at / Fold change /veh 11764193_at / RFU TMEM53 (11763286_at) / Fold change /veh TMEM53 (11763286_at) / RFU MAGEB2 (11727129_at) / Fold change /veh MAGEB2 (11727129_at) / RFU TMEM200A (11744735_a_at) / Fold change /veh TMEM200A (11744735_a_at) / RFU CCDC152 (11751479_a_at) / Fold change /veh CCDC152 (11751479_a_at) / RFU FAM211A (11726209_a_at) / Fold change /veh FAM211A (11726209_a_at) / RFU RGS16 (11746705_a_at) / Fold change /veh RGS16 (11746705_a_at) / RFU VCAN (11755009_s_at) / Fold change /veh VCAN (11755009_s_at) / RFU RHOB (11743442_s_at) / Fold change /veh RHOB (11743442_s_at) / RFU RGS16 (11720943_a_at) / Fold change /veh RGS16 (11720943_a_at) / RFU RGS16 (11720944_at) / Fold change /veh RGS16 (11720944_at) / RFU, VPS4B / Fold change vs veh, VPS4B / RFU, CREB1 / Fold change vs veh, CREB1 / RFU, DNAJC13 / Fold change vs veh, DNAJC13 / RFU, GNAQ / Fold change vs veh, GNAQ / RFU, CDK5R1 / Fold change vs veh, CDK5R1 / RFU, ZRANB3 / Fold change vs veh, ZRANB3 / RFU, CUL4A / Fold change vs veh, CUL4A / RFU, CCNY / Fold change vs veh, CCNY / RFU, UFL1 / Fold change vs veh, UFL1 / RFU, COG3 / Fold change vs veh, COG3 / RFU, DIAPH2 / Fold change vs veh, DIAPH2 / RFU, SKA2 / Fold change vs veh, SKA2 / RFU, AFF3 / Fold change vs veh, AFF3 / RFU, LMF1 / Fold change vs veh, LMF1 / RFU, IPO11 / Fold change vs veh, IPO11 / RFU, DFFB / Fold change vs veh, DFFB / RFU, FOXP1 / Fold change vs veh, FOXP1 / RFU, CARD8 / Fold change vs veh, CARD8 / RFU, STRN3 / Fold change vs veh, STRN3 / RFU, ADK / Fold change vs veh, ADK / RFU, RASSF2 / Fold change vs veh, RASSF2 / RFU, WIPF1 / Fold change vs veh, WIPF1 / RFU, LARP1B / Fold change vs veh, LARP1B / RFU, RASA1 / Fold change vs veh, RASA1 / RFU, RB1 / Fold change vs veh, RB1 / RFU, PPFIA1 / Fold change vs veh, PPFIA1 / RFU, MAT2A / Fold change vs veh, MAT2A / RFU, CCT5 / Fold change vs veh, CCT5 / RFU, WDR92 / Fold change vs veh, WDR92 / RFU, CUX1 / Fold change vs veh, CUX1 / RFU, TTC7A / Fold change vs veh, TTC7A / RFU, TMEM135 / Fold change vs veh, TMEM135 / RFU, DEPTOR / Fold change vs veh, DEPTOR / RFU, CPM / Fold change vs veh, CPM / RFU, DNAJB6 / Fold change vs veh, DNAJB6 / RFU, CACNA2D3 / Fold change vs veh, CACNA2D3 / RFU, DTX4 / Fold change vs veh, DTX4 / RFU, TFCP2 / Fold change vs veh, TFCP2 / RFU, GMCL1 /// GMCL1P1 / Fold change vs veh, GMCL1 /// GMCL1P1 / RFU, AEBP2 / Fold change vs veh, AEBP2 / RFU, SNHG1 /// SNORD22 /// SNORD25 /// SNORD26 /// SNORD27 /// SNORD28 /// SNORD29 /// SNORD31 / Fold change vs veh, SNHG1 /// SNORD22 /// SNORD25 /// SNORD26 /// SNORD27 /// SNORD28 /// SNORD29 /// SNORD31 / Fold change (Aza/veh), C12orf56 (ProbeSet 11735607_a_at) / Fold change (ACY-1035/veh), C12orf56 (ProbeSet 11735607_a_at) / Fold change (Aza/veh), FGFR1OP (ProbeSet 11751329_s_at) / Fold change (ACY-1035/veh), FGFR1OP (ProbeSet 11751329_s_at) / Fold change (Aza/veh), VPS36 (ProbeSet 11739960_a_at) / Fold change (ACY-1035/veh), VPS36 (ProbeSet 11739960_a_at) / RFU SYPL1 (11715823_x_at) / Fold change /veh SYPL1 (11715823_x_at) / RFU IGFBP7 (11715501_s_at) / Fold change /veh IGFBP7 (11715501_s_at) / RFU REEP3 (11722064_at) / Fold change /veh REEP3 (11722064_at) / RFU IGLL1 (11728026_x_at) / Fold change /veh IGLL1 (11728026_x_at): dose or concentration left out as unconfirmed
Details: MV-4-11 cells, 48 hours

For `Nc1ncn([C@@H]2O[C@H](CO)[C@@H](O)[C@H]2O)c(=O)n1` [azacitidine], the “Fold change /veh CLDN22 /// WWC2 (11732394_at)” value was 1.14.

— article PMC5218480 (PLoS ONE, 2017)
